Experimental data published in ChEMBL document CHEMBL1136874, “Novel carbazole and acyl-indole antimitotics” (Bioorg Med Chem Lett, 2009).
Calls of active or inactive are those of the source. The calls are words filed in the database; no cut-off is given here.

Assays:
[1] = Cell cycle arrest in human leukemic cells assessed as mitotic block by cytometry; type: functional, cell-based; details: Leukemia cell
PC-3 = assay: Cytotoxicity against human PC3 cells; type: functional
HT-29 = assay: Cytotoxicity against human HT-29 cells; type: functional
SW-620 = assay: Cytotoxicity against human SW620 cells; type: functional
MCF7 = assay: Cytotoxicity against human MCF7 cells; type: functional
K562 = assay: Cytotoxicity against human K562 cells; type: functional
[2] = Displacement of labeled vinblastine from tubulin
[3] = Inhibition of tubulin polymerization
Leukemia cell [4] = assay: Induction of apoptosis in human leukemic cells; type: functional, cell-based
[5] = Displacement of [3H]colchicine from tubulin
[6] = Cell cycle arrest in human leukemic cells assessed as blockage in G2/M phase by high content cellular analysis; type: functional, cell-based; details: Leukemia cell
Leukemia cell [7] = assay: Increase in phospho-Histone H3-ser10 level in human leukemic cells by flow cytometry; type: functional, cell-based

COc1cc(C(N)=O)ccc1-n1c2c(c3ccccc31)C(=O)CCC2
Activity [1]: 0.42 µM

C=CCNc1cc(-n2c3c(c4ccccc42)C(=O)CCC3)ccc1C(N)=O
Activity [1]: 0.99 µM

COc1cc(C(N)=O)ccc1-n1cc(C(C)=O)c2ccccc21
Activity [1]: 0.17 µM

COc1cc(-n2c3c(c4ccccc42)C(=O)CCC3)ccc1C(N)=O
Activity [1]: > 10 µM

CC(=O)c1cn(-c2ccc(C(N)=O)cc2Cl)c2cc(Cl)ccc12
Activity (PC-3): 2.2 nM
Activity [1]: 0.21 µM
Activity (HT-29): 9.3 nM
Activity (SW-620): 6.5 nM
Activity (MCF7): 1.2 nM
Activity (K562): 0.085 nM

CC(=O)c1cn(-c2ccc(C(N)=O)cc2Cl)c2ccccc12
Activity [1]: 0.14 µM

NC(=O)c1ccc(-n2c3c(c4ccccc42)C(=O)CCC3)c(-c2ccccc2)c1
Activity [1]: > 10 µM

COc1cc2c(c(OC)c1OC)-c1ccc(OC)c(=O)cc1[C@@H](NC(C)=O)CC2
Activity [1]: 0.043 µM

NC(=O)c1ccc(-n2c3c(c4ccccc42)C(=O)CCC3)c(N)c1
Activity [1]: 10 µM

N=C(NO)c1ccc(-n2c3c(c4ccccc42)C(=O)CCC3)c(Br)c1
Activity [1]: 2 µM

NC(=O)c1ccc(-n2c3c(c4ccccc42)C(=O)CCC3)c(Cl)c1
Activity (PC-3): 140 nM
Activity [1]: 0.42 µM
Activity (HT-29): 300 nM
Activity (SW-620): 94 nM
Activity (MCF7): 85 nM
Activity (K562): 210 nM

NC(=O)c1ccc(-n2c3c(c4ccccc42)C(=O)CCC3)c(C(F)(F)F)c1
Activity [1]: 0.24 µM

Cc1cc(C(N)=O)ccc1-n1c2c(c3ccccc31)C(=O)CCC2
Activity [1]: 0.96 µM

NC(=O)c1ccc(-n2c3c(c4ccccc42)C(=O)CCC3)c(Br)c1
Activity [1]: 0.15 µM

CC(C)C(=O)c1cn(-c2ccc(C(N)=O)cc2Cl)c2ccccc12
Activity [1]: 5 µM

NC(=O)c1ccc(-n2c3c(c4ccccc42)C(=O)CCC3)cc1Br
Activity [1]: > 10 µM

NC(=O)Nc1ccc(-n2c3c(c4ccccc42)C(=O)CCC3)c(Cl)c1
Activity [2]: inactive
Activity (PC-3): 790 nM
IC50 [3]: 1.64 µM
Activity (Leukemia cell [4]): Active
IC50 [5]: 1.61 µM
Activity [1]: 0.12 µM
Activity (HT-29): 3.2 nM
Activity (SW-620): 15 nM
Activity [6]: Active
Activity (MCF7): 0.87 nM
Activity (Leukemia cell [7]): Active
Activity (K562): 5.5 nM

COc1cc(-n2cc(C(C)=O)c3ccccc32)ccc1C(N)=O
Activity [1]: 0.1 µM

NC(=O)c1ccc(-n2c3c(c4ccccc42)C(=O)CCC3)c(F)c1
Activity [1]: 5 µM

NC(=O)c1ccc(-n2c3c(c4ccccc42)C(=O)CCC3)cc1NCc1ccccc1
Activity [1]: 6.2 µM

N#Cc1ccc(-n2c3c(c4ccccc42)C(=O)CCC3)c(C(F)(F)F)c1
Activity [1]: > 10 µM

CN[C@H]1CCc2cc(OC)c(OC)c(OC)c2-c2ccc(OC)c(=O)cc21 [DEMECOLCINE]
Activity (PC-3): 31 nM
IC50 [5]: 3.58 µM
Activity (HT-29): 25 nM
Activity (SW-620): 31 nM
Activity (MCF7): 7.8 nM
Activity (K562): 16 nM

O=C(O)c1ccc(-n2c3c(c4ccccc42)C(=O)CCC3)c(Br)c1
Activity [1]: > 10 µM

CC(=O)Nc1ccc(-n2c3c(c4ccccc42)C(=O)CCC3)c(Cl)c1
Activity [1]: 0.41 µM

NC(=O)c1ccc(-n2c3c(c4ccccc42)C(=O)CCC3)cc1
Activity (PC-3): 7000 nM
Activity [1]: > 10 µM
Activity (HT-29): 4500 nM
Activity (SW-620): 1200 nM
Activity (MCF7): 2300 nM
Activity (K562): 2000 nM

CC[C@]1(O)C[C@@H]2CN(CCc3c([nH]c4ccccc34)[C@@](C(=O)OC)(c3cc4c(cc3OC)N(C)[C@H]3[C@@](O)(C(=O)OC)[C@H](OC(C)=O)[C@]5(CC)C=CCN6CC[C@]43[C@@H]65)C2)C1 [VINBLASTINE]
IC50 [3]: 1.15 µM
